Patent publication EP0888322B1, “ELECTROPHILIC KETONES FOR THE TREATMENT OF HERPESVIRUS INFECTIONS” (G.D. SEARLE & CO., priority 1996, dated 1997)

Key:
[1] = molecular target: T1, Bovine pancreas α-chymotrypsin (Bos taurus, UniProt P00766, DEL14-15/DEL147-148); experiment: Chymotrypsin assay; format: biochemical; details: read-out: Chymotrypsin % @ Conc.
T1 construct: Bovine pancreas α-chymotrypsin (type II, Sigma); purchased Sigma type II; host or cells: bovine pancreas
Method: The chymotrypsin assay was modified from the method of Delmar et al [Anal. Biochem., 99, 316-320 (1979)]. Bovine pancreas α-chymotrypsin (type II, Sigma) was dissolved in 0.001 N HCl at 1 mg/ml and further diluted 1/600 in assay buffer (0.1 M Tris, pH 7.8, containing 0.1 M CaCl2) before use. 20 µl of test compound in DMSO (or DMSO alone), 100 µl of assay buffer and 30 µl of enzyme were added to 96 well plates, mixed and pre-incubated for 30 minutes at ambient temperature. Reaction was initiated by addition of 50 µl of 0.2 mM N-succinyl-Ala-Ala-Pro-Phe-p-nitroanilide (Sigma; 2 mM in DMSO diluted 1/10 in assay buffer before use). The increase in absorbance at 405 nm was monitored for 10 minutes with a Biotek EL340 plate reader.

[2] = molecular target: HCMV protease (Assemblin) (Human cytomegalovirus, UniProt P16753); experiment: Enzymatic assay for HCMV protease (Assemblin) inhibitors, chromogenic pNA substrate; format: biochemical
Chain of HCMV protease (Assemblin) (P16753 1-256): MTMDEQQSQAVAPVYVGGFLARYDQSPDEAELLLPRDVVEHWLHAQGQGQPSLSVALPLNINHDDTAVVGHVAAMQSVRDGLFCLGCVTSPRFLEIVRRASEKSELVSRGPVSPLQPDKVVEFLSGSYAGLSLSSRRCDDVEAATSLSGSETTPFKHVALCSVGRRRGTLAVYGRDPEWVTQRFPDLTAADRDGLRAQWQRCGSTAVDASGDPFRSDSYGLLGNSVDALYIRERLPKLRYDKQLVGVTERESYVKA
Method: Assemblin protease activity was determined using a chromogenic para-nitroanilide (pNA) substrate based on the hCMV maturation cleavage site, succinyl-AGVVNA-paranitroanilide. […] Potential protease inhibitors were dissolved in DMSO and 10 µL were added to the wells of a 96-well plate (Dynatech, Immulon 1). Enzyme was diluted to 4.8 µg/mL in assay buffer (10 mM sodium phosphate, pH 7.4, 150 mM sodium acetate, 0.1% CHAPS, 20% glycerol) and 100 µL were added to each well. Following a 30 minute incubation at room temperature, 50 µL substrate (1 part 20 mM succinyl-AGVVNA-paranitroanilide (SEQID:1) in DMSO plus 9 parts assay buffer) were added, and periodic readings taken in a microplate reader at 405 nm relative to 650 nm. Activities were expressed as milliabsorbance unit (mAU) change per minute. Inhibitor potency was determined by comparison with incubations lacking inhibitor, which under these conditions gave an increase of 0.5-1 mAU/min. No increase was seen when enzyme was omitted. Results [IC50 (µM)] are included in Table 1.
The construction also encoded six additional histidine residues at the amino terminus of the protease. These additional histidine residues provided an affinity ligand by which it was purified using nickel-nitriloacetic acid-agarose (Qiagen).
The purified protease was stored as a 1-3 mg/ml stock solution in 20 mM HEPES buffer, pH 7.4; containing 20% (v/v) glycerol. This stock was diluted with assay buffer to 4.8 µg/ml. A 100 µL aliquot of this solution was used in the enzyme reaction.
A specific substrate was synthesized based on the cleavage specificity of HCMV protease at the "maturation site" of the assembly protein (F. Liu and B. Roizman, J. Virol., 65, 5149 (1991), and A. Welch, et al, J. Virol., 65, 4091 (1991)). The assembly protein maturation site has the sequence ...AGVVNA*SCRLATA...; the substrate used was succinyl-[…] (SEQID:1) which was prepared by standard peptide synthetic methods such as that described in Bodansky and Bodansky, "The Practice of Peptide Synthesis" (1984), and was stored as a stock solution at 20 mM in dimethyl sulfoxide. This was diluted 10-fold with assay buffer to give a concentration of 2 mM just before use. An aliquot of 50 µL was used in the reaction
An assay Buffer (10 mM sodium phosphate buffer, pH 7.4; 150 mM sodium acetate; 0.1% CHAPS; and 20% (v/v) glycerol) was used to dilute stock solutions of enzyme and substrate.

[3] = molecular target: T2, Human leukocyte elastase (HLE) (Homo sapiens, UniProt P08246); experiment: Human leukocyte elastase assay; format: biochemical; details: read-out: HLE % @ Conc.
T2 construct: gift of R. Senior, Washington University
T2 sequence (P08246 30-267): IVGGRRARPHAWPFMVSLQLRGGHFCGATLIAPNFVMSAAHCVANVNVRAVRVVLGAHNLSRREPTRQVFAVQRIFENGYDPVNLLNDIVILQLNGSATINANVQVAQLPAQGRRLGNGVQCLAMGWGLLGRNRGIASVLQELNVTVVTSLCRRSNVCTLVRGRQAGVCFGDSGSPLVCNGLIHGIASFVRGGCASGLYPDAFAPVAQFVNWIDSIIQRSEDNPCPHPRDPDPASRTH
Method: Human leukocyte elastase (HLE) (gift of R. Senior, Washington University) was dissolved in saline at 1 mg/ml and further diluted 1/20 in assay buffer (0.2 M Tris, pH 8.0) before use. 10 µl of test compound in DMSO (or DMSO alone), 100 µl of assay buffer and 50 µl of enzyme were added to 96 well plates, mixed and pre-incubated for 30 minutes at ambient temperature. Reaction was initiated by addition of 40 µl of 2.5 mM methoxysuccinyl-Ala-Ala-Pro-Val-p-nitroanilide (Sigma; 25 mM in DMSO diluted 1/10 in assay buffer before use). The increase in absorbance at 405 nm was monitored for 10 minutes with a Biotek EL340 plate reader.

HCMV = HCMV antiviral assay, format (RC256 or ELISA) not given; format: cell-based; details: Human betaherpesvirus 5, read-out: Antiviral Activity EC50
Text: (§1) These complimentary assays tested the ability of a compound to inhibit the production of new virus and the toxicity of the compound to the host cells. It was important that both assays be performed simultaneously in order to compare the results directly since, toxicity may indirectly reduce viral yield.
Viral yield was estimated by measuring the amount of a viral antigen produced 4 days post infection with a monoclonal antibody to an abundant "immediate early" viral protein. An enzyme-linked (horseradish peroxidase) secondary antibody specific to the primary (mouse) antibody was used to measure the amount of viral antigen. Test compounds were diluted to 2-times the desired final concentration in DMEM + 5% FBS. One hundred microliters of this solution was placed in each well of a 96-well plate. This was performed once for the antiviral 96-well plate and again for a cytotoxicity plate. […]
(§2) The following was performed on the antiviral plate only. […] The reaction was stopped by adding 100 µL of phosphoric acid and the OD at 450 nm recorded. […] Antiviral activity was calculated by comparing the amount of viral antigen produced in drug treated wells with that produced in wells absent of drug. […]
In this assay, HCMV replication was monitored by the production of E. coli beta-galactosidase by the engineered virus RC256 [Spaete and Mocarski, Proc.Nat.Acad.Sci., 84, 7213 (1987)]. […]

in vitro [4] = format: cell-based; details: human
Text: as §1
(§3) Viral yield was estimated by measuring the amount of a viral antigen produced 4 days post infection with a monoclonal antibody to an abundant "immediate early" viral protein. An enzyme-linked (horseradish peroxidase) secondary antibody specific to the primary (mouse) antibody was used to measure the amount of viral antigen. Test compounds were diluted to 2-times the desired final concentration in DMEM + 5% FBS. One hundred microliters of this solution was placed in each well of a 96-well plate. This was performed once for the antiviral 96-well plate and again for a cytotoxicity plate. Two controls were also included for both plates; a no drug control and a no virus control. Ganciclovir was routinely tested in antiviral and cytotoxicity plates as a reference standard because it has known antiviral activity for HCMV. All cells were prepared by harvesting human foreskin fibroblasts, with trypsin and re-suspending at a concentration of 5 X 10^5 cells per ml in DMEM. Infected cells were prepared by infecting these with HCMV (strain AD169) at a multiplicity of infection = 0.2. One hundred microliters of uninfected cells (5 x 10^4 cells) were added to the appropriate wells of the cytotoxicity plate. In a similar manner 100 µl of infected cells (5 x 10^4 cells) were added to the appropriate wells of the antiviral plate. Additionally, uninfected cells not treated with test compound were included as controls on the antiviral plate. Plates were incubated for 96 hours at 37°C in 5% CO2 atmosphere and processed to measure the amount of viral antigen and toxicity.
(§4) In this assay, HCMV replication was monitored by the production of E. coli beta-galactosidase by the engineered virus RC256 [Spaete and Mocarski, Proc.Nat.Acad.Sci., 84, 7213 (1987)]. One antiviral assay and one cytotoxicity assay were done for each compound. Dilutions of test compounds and infection of cells in a 96-well plate was essentially as described above for the HCMV ELISA except for the following. Human foreskin fibroblasts at 3.5 x 10^5 cells per milliliter were infected in solution with RC256 at 0.05 pfu per cell. Compounds and cells were incubated 3 days and processed at […]. For the beta galactosidase detection, the supernatant was aspirated from the antiviral assay plates and 50 µl Reporter Lysis Buffer (Promega, diluted to 1X with water) was added per well. The plates were incubated at room temperature at least 30 minutes and plates were frozen at -20 °C at this point for later processing. 50 µl of 2X assay buffer [120 mM Na2HPO4, 80 mM NaH2PO4, 2 mM MgCl2, 100 mM 2-mercaptoethanol, 4.4 mM ONPG (Sigma)] was added per well and incubated at room temperature 30 to 45 minutes. The reaction was stopped with 100 µl 1M CAPS buffer, pH = 11.0, per well and the optical density was read at 410 nanometers. Ganciclovir was used as a positive control and the EC50 was determined as described above for the HCMV ELISA. Results (EC50/TD50) are included in Table 1.

HCMV (strain AD169) = experiment: Antiviral assay, ELISA for HCMV antigens; format: cell-based; details: Human betaherpesvirus 5, AD169, 96 hours
Text: as §1
Viral yield was estimated by measuring the amount of a viral antigen produced 4 days post infection with a monoclonal antibody to an abundant "immediate early" viral protein. An enzyme-linked (horseradish peroxidase) secondary antibody specific to the primary (mouse) antibody was used to measure the amount of viral antigen. Test compounds were diluted to 2-times the desired final concentration in DMEM + 5% FBS. One hundred microliters of this solution was placed in each well of a 96-well plate. This was performed once for the antiviral 96-well plate and again for a cytotoxicity plate. Two controls were also included for both plates; a no drug control and a no virus control. […]
as §2

in vitro [5] = format: cell-based; details: human, foreskin fibroblasts
Text: as §1
as §3, with “One hundred microliters of uninfected cells (5 x 10^4 cells) were added to the appropriate wells of the cytotoxicity plate. In a similar manner 100 µl of infected cells (5 x 10^4 cells) were added to the appropriate wells of the antiviral plate. Additionally, uninfected cells not treated with test compound were included as controls on the antiviral plate. Plates were incubated for 96 hours at 37°C in 5% CO2 atmosphere and processed to measure the amount of viral antigen and toxicity.” left out

RC256 = experiment: Recombinant human cytomegalovirus antiviral assay (RC256, beta-galactosidase); format: cell-based, HCMV; details: Human betaherpesvirus 5, read-out: Antiviral Activity EC50
Text: as §1, §4

[6] = read-out: Assemblin Protease % @ Conc.

In the case of O=C(CCc1ccccc1)Nc1ccccc1C(=O)C(F)(F)F [Example 4, N-[2-(2,2,2-trifluoro-1-oxoethyl)phenyl]benzenepropanamide], the inhibition at 100 µM [1] is reported as 11%.

Work on COc1ccccc1C(=O)Nc1ccccc1C(=O)C(F)(F)C(=O)NC(C)C [Example 17, N-[2-(3-(2-propylamino)-3-oxo-2,2-difluoro-1-oxopropyl)phenyl]2-methoxyphenylcarboxamide] yielded an inhibition at 300 µM [1] of 0%.

With COc1ccccc1C(=O)Nc1ccccc1C(=O)C(F)(F)F [Example 12, N-[2-(2,2,2-trifluoro-1-oxoethyl)phenyl]2-methoxybenzamide] the inhibition at 33 µM [2, 6] was 14%.

With “N-[2,2,2-trifluoro-1-oxoethyl)phenyl]indolyl-2-carboxamide [Example 15]” the percent inhibition ([2]; @ 100 µM) was 30% @ 100.

With O=C(Nc1ccc(I)cc1C(=O)C(F)(F)F)c1ccco1 [Example 13, N-[4-iodo-2-(2,2,2-trifluoro-1-oxoethyl)phenyl]furan-2-carboxamide] the inhibition at 33 µM ([1]; @ 33 µM) was 39%, the inhibition at 24 µM ([3]; @ 24 µM) was 50% and the EC50 (HCMV) was 28 µM. The CC50 (in vitro [4]; human foreskin fibroblasts) was greater than 100 µM.

O=C(CCc1ccccc1)Nc1cc([N+](=O)[O-])ccc1C(=O)C(F)(F)F [Example 7, N-[5-nitro-2-[2,2,2-trifluoro-1-oxoethyl)phenyl]benzenepropanamide] showed an inhibition at 33 µM [2, 6] of 84%, an EC50 (HCMV (strain AD169)) of 16 µM and a CC50 at 96 h (in vitro [5]) greater than 100 µM. It also gave an inhibition at 100 µM [1] of 27%.

With O=C(Nc1ccccc1C(=O)C(F)(F)F)OCc1ccccc1 [Example 6, phenylmethyl N-[2-(2,2,2-trifluoro-1-oxoethyl)phenyl]carbamate] the inhibition at 100 µM [1] was 21%.

Molecule O=C(Nc1ccccc1C(=O)C(F)(F)F)c1ccccn1 [Example 11, N-[2-(2,2,2-trifluoro-1-oxoethyl)phenyl]pyridine-2-carboxamide] has an inhibition at 33 µM [2, 6] of 40%.

Work on O=C(Nc1ccc(F)cc1C(=O)C(F)(F)F)c1ccco1 [Example 8, N-[4-fluoro-2-(2,2,2-trifluoro-1-oxoethyl)phenyl] furan-2-carboxamide] yielded an inhibition at 33 µM [2, 6] of 18%.

Work on O=C(Nc1ccccc1C(=O)C(F)(F)F)c1ccco1 [Example 1, N-[2-(2,2,2-trifluoro-1-oxoethyl)phenyl]furan-2-carboxamide] yielded an EC50 (RC256) of 45 µM, an inhibition at 300 µM ([3]; @ 300 µM) of 25% and a CC50 (in vitro [4]; foreskin fibroblasts) greater than 100 µM.

Work on O=C(Nc1ccccc1C(=O)C(F)(F)F)C(F)(F)F [Example 10, α,α,α-trifluoro-N-[2-(2,2,2-trifluoro-1-oxoethyl)phenyl]acetamide] yielded an inhibition at 10 µM ([2]; @ 10 µM, read-out: Assemblin Protease % @ Conc.) of 39%, an EC50 (HCMV (strain AD169)) greater than 100 µM and a CC50 at 96 h (in vitro [5]) greater than 100 µM. For the same molecule, the inhibition at 100 µM [1] was 49%.

Work on O=C(Nc1ccccc1C(=O)C(F)(F)F)c1cnccn1 [Example 5, N-[2-(2,2,2-trifluoro-1-oxoethyl)phenyl]pyrazine-2-carboxamide] yielded an EC50 (RC256) of 55 µM, an inhibition at 300 µM [1] of 0% and a CC50 (in vitro [4]; foreskin fibroblasts) greater than 100 µM.

With O=C(Nc1ccccc1C(=O)C(F)(F)F)c1cc2ccccc2s1 [Example 9, N-[2-(2,2,2-trifluoro-1-oxoethyl)phenyl]-1-benzothiophene-2-carboxamide] the EC50 (RC256) was 30 µM, the inhibition at 100 µM [1] was 48% and the CC50 (in vitro [4]; foreskin fibroblasts) was greater than 100 µM.

For O=C(CCc1ccccc1)Nc1cc(F)ccc1C(=O)C(F)(F)F [Example 2, N-[5-fluoro-2-(2,2,2-trifluoro-1-oxoethyl)phenyl]benzenepropanamide], the EC50 (RC256) was 57 µM, the inhibition at 100 µM [1] was 48% and the inhibition at 100 µM ([3]; @ 100 µM) was 26%. The CC50 (in vitro [4]; foreskin fibroblasts) was greater than 100 µM.
